Results as given in patent US20080300288A1, “Alkenyldiarylmethanes, Fused Analogs And Syntheses Thereof” (PURDUE RESEARCH FOUNDATION, priority 2005, published 2008).

Columns and labels:
[1] = Cytotoxicity in mock-infected MT-4 cells; format: cell-based; details: human, uninfected (mock-infected) MT-4 cells
[2] = molecular target: T1, recombinant HIV-1 RT enzyme (p66/51 dimer) (Human immunodeficiency virus type 1 group M subtype B, UniProt P04585); assay: RT inhibition assay, incorporation of [32P]GTP into poly(rC)/oligo(dG); format: biochemical
T1 construct: recombinant HIV-1 RT enzyme (p66/51 dimer)
Description: RT Inhibition Assay. Analysis of the effects of the compounds on recombinant HIV-1 RT enzyme (p66/51 dimer) was performed as previously described. See, Buckheit, R. W. J.; Fliakas-Boltz, V.; Decker, W. D.; Robertson, J. L.; Stup, T. L.; Pyle, C. […] Antiviral Res. 1995, 26, 117-132, the disclosure of which is incorporated herein by reference. Briefly, inhibition of purified recombinant reverse transcriptase enzyme was measured by the incorporation of [^32P]GTP into poly(rC)/oligo(dG) (rCdG) homopolymer template primers.

[3] = In vitro hydrolytic stability study in rat plasma; format: in vitro ADME; details: for Rat Plasma tp1/2 (min ± SD): rat plasma in vitro, half-life; for hydrolysis in rat plasma: 37° C.
Description: NMR spectra were obtained at 300 MHz (^1H) and 75 MHz (^13C) in CDCl3 using CHCl3 as internal standard. Flash chromatography was performed with 230-400 mesh silica gel. […] Melting points are uncorrected. Unless otherwise stated, chemicals and solvents were of reagent grade and used as obtained from commercial sources without further purification. Tetrahydrofuran (THF) was freshly distilled from sodium/benzophenone ketyl radical prior to use. Dichloromethane was freshly distilled from calcium hydride prior to use. Lyophilized rat plasma (lot 052K7609) was obtained from Sigma Chemical Co., St. Louis, Mo. All yields given refer to isolated yields.
In vitro Hydrolytic Stability Study in Rat Plasma. […] See, Silvestri, M. A.; Nagarajan, M.; De Clercq, E.; Pannecouque, C.; Cushman, M. Design, Synthesis, Anti-HIV Activities, and Metabolic Stabilities of Alkenyldiarylmethane (ADAM) Non-nucleoside Reverse Transcriptase Inhibitors. J. Med. Chem. 2004, 47, 3149-3162, the disclosure of which is incorporated herein by reference.

HIV-2 strain (ROD) = assay: MTT assay, HIV-2 strain (ROD) in MT-4 cells; format: cell-based; details: Human immunodeficiency virus 2, MT4; HIV-2ROD in MT-4 cells; read-out: EC50 HIV-2-ROD (inhibition of cytopathicity)
HIV-1 strain IIIB = assay: MTT assay, HIV-1 strain IIIB in MT-4 cells; format: cell-based; details: Human immunodeficiency virus 1, MT4; HIV-1IIIB in MT-4 cells; read-out: EC50 HIV-1IIIB (inhibition of cytopathicity)
HIV-1RF = assay: MTS cytoprotection assay, HIV-1RF infection in CEM-SS cells; format: cell-based; details: Human immunodeficiency virus 1; HIV-1RF in CEM-SS cells; read-out: EC50 HIV-1RF (inhibition of cytopathicity)
Description: (§1) In Vitro Antiviral Assays. Evaluation of the antiviral activity of compounds against HIV-1RF infection in CEM-SS cells was performed using the MTS cytoprotection assay as previously described. See, Rice, W. G.; Bader, J. P. Discovery and in Vitro Development of AIDS Antiviral Drugs as Biopharmaceuticals. Adv. Pharmacol. (San Diego) 1995, 6, 389-438, the disclosure of which is incorporated herein by reference. […] See, Pauwels, R.; Balzarini, J.; Baba, M.; Snoeck, R.; Schols, D.; Herdewijn, P.; Desmyter, J.; De Clercq, E. Rapid and Automated Tetrazolium-based Colorimetric Assay for Detection of Anti-HIV Compounds. J. Virol. Methods 1988, 20, 309-321, the disclosure of which is incorporated herein by reference.

[4] = Cytotoxicity in mock-infected CEM-SS cells; format: cell-based; details: human, uninfected (mock-infected) CEM-SS cells
Description: as §1, with “[…].;” for “D.; Herdewijn, P.; Desmyter, J.;”, “[…].” for “Clercq, E.”

| Compound | CC50 [1] [µM] | IC50 [2] [µM] | Rat Plasma tp1/2 (min ± SD) [3] [min] | EC50 (HIV-2 strain (ROD)) [µM] | EC50 (HIV-1 strain IIIB) [µM] | EC50 (HIV-1RF) [µM] | CC50 [4] [µM] | hydrolysis in rat plasma ([3]; after three days) | hydrolysis in rat plasma ([3]; after 1 day) |
| --- | --- | --- | --- | --- | --- | --- | --- | --- | --- |
| COC(=O)c1cc(/C(=C\CCN2CCOC2=O)c2ccc(OC)c(OC)c2)cc(C)c1OC [Compound 3] | 1.05 | 1 | 5.76 ± 0.68 | > 1.05 | > 1.05 | > 100 | 0.49 |  |  |
| COC(=O)c1cc(/C(=C/CCN2CCOC2=O)c2ccc(OC)c(OC)c2)cc(C)c1OC [Compound 4, (Z)-5-[1-(3,4-Dimethoxyphenyl)-4-(2-oxo-oxazolidin-3-yl)-but-1-enyl]-2-methoxy-3-methyl-benzoic Acid Methyl Ester] | 83.1 | 0.9 | 0.79 ± 0.10 | > 35.4 | > 33.8 | > 100 | 0.6 |  |  |
| COC(=O)c1cc(/C(=C\CCN2CCOC2=O)c2cc(F)cc(C(F)(F)F)c2)cc(C)c1OC [Compound 7, (E)-5-[1-(3-Fluoro-5-trifluoromethylphenyl)-4-(2-oxo-oxazolidin-3-yl)-but-1-enyl]-2-methoxy-3-methylbenzoic Acid Methyl Ester] |  | 15.7 |  |  |  | 8.3 | 15 |  |  |
| COc1ccc(/C(=C\CCN2CCOC2=O)c2cc(F)cc(C(F)(F)F)c2)cc1OC [Compound 8, (E)-3-[4-(3-Fluoro-5-trifluoromethylphenyl)-4-(3,4-dimethoxyphenyl)-but-3-enyl]-oxazolidin-2-one] |  | 97.8 |  |  |  | > 100 | 14.5 | had not been hydrolyzed |  |
| COc1ccc(/C(=C\CCN2CCOC2=O)c2cc(F)ccc2C(F)(F)F)cc1OC [Compound 9, (E)-3-[4-(5-Fluoro-2-trifluoromethylphenyl)-4-(3,4-dimethoxyphenyl)-but-3-enyl]-oxazolidin-2-one] |  | > 100 |  |  |  | > 100 | 26.7 | had not been hydrolyzed |  |
| COC(=O)CCC/C=C(/c1cc(Cl)c(OC)c(C(=O)OC)c1)c1cc(Cl)ccc1OC [Compound 10, (Z)-3-Chloro-5-[1-(5-chloro-2-methoxyphenyl)-5-methoxycarbonyl-pent-1-enyl]-2-methoxybenzoic Acid Methyl Ester] |  | > 100 | 0.77 ± 0.08 |  |  | > 100 | 15.5 |  |  |
| COC(=O)CCC/C=C(/c1cc(C)c(OC)c(C(=O)OC)c1)c1cc(Cl)ccc1OC [Compound 11, (Z)-5-[1-(5-Chloro-2-methoxyphenyl)-5-methoxycarbonyl-pent-1-enyl]-2-methoxy-3-methylbenzoic Acid Methyl Ester] |  | > 100 | 0.98 ± 0.02 |  |  | > 100 | 8 |  |  |
| COC(=O)CCC/C=C(\c1cc(F)cc(C(F)(F)F)c1)c1cc(C)c(OC)c(C(=O)OC)c1 [Compound 12, (Z)-5-[1-(3-Fluoro-5-trifluoromethylphenyl)-5-methoxycarbonyl-pent-1-enyl]-2-methoxy-3-methylbenzoic Acid Methyl Ester] | 5.7 | > 100 |  | > 5.89 | > 5.51 | > 5 | > 5 |  |  |
| COC(=O)CCC/C=C(\c1cc(F)cc(C(F)(F)F)c1)c1cc(Cl)c(OC)c(C(=O)OC)c1 [Compound 13, (E)-3-Chloro-5-[1-(3-fluoro-5-trifluoromethylphenyl)-5-methoxycarbonyl-pent-1-enyl]-2-methoxy-benzoic Acid Methyl Ester] |  | > 100 |  |  |  | > 100 | 16.1 |  |  |
| COC(=O)CCC/C=C(\c1cc(C)c(OC)c(C(=O)OC)c1)c1cc(Cl)ccc1OC [Compound 14, (E)-5-[1-(5-Chloro-2-methoxyphenyl)-5-methoxycarbonyl-pent-1-enyl]-2-methoxy-3-methylbenzoic Acid Methyl Ester] |  | > 100 | 0.49 ± 0.02 |  |  | > 100 | 8.3 |  |  |
| COC(=O)CCC/C=C(/c1cc(F)cc(C(F)(F)F)c1)c1cc(C)c(OC)c(C(=O)OC)c1 [Compound 15, (E)-5-[1-(3-Fluoro-5-trifluoromethylphenyl)-5-methoxycarbonyl-pent-1-enyl]-2-methoxy-3-methylbenzoic Acid Methyl Ester] | 113 | 55.3 | 4.35 ± 0.41 | 10.6 | 2.54 | 7.3 | 9.3 |  |  |
| COC(=O)CCC/C=C(\c1cccc(C#N)c1)c1cc(Cl)c(OC)c(C(=O)OC)c1 [Compound 17, (E)-3-Chloro-5-[1-(3-cyanophenyl)-5-methoxycarbonyl-pent-1-enyl]-2-methoxybenzoic Acid Methyl Ester] | 213 | 0.75 | 0.44 ± 0.05 | > 223 | 8.55 | 7.1 | 20.2 |  |  |
| COC(=O)CCC/C=C(\c1cccc(C#N)c1)c1cc(Cl)ccc1OC [Compound 18, (E)-6-(5-Chloro-2-methoxyphenyl)-6-(3-cyanophenyl)-hex-5-enoic Acid Methyl Ester] | ≥ 45.1 | 0.78 | 0.42 ± 0.02 | > 67.6 | 9.11 | 7 | 16.3 |  |  |
| COC(=O)CCC/C=C(\c1cc(F)cc(C(F)(F)F)c1)c1cc(C)c2onc(OC)c2c1 [Compound 19, (Z)-6-(3-Fluoro-5-trifluoromethylphenyl)-6-(3-methoxy-7-methylbenzo[d]isoxazol-5-yl)-hex-5-enoic Acid Methyl Ester] |  | 0.9 |  |  |  |  |  |  |  |
| COC(=O)CCC/C=C(/c1cc(C)c2on(C)c(=O)c2c1)c1cc(Cl)ccc1OC [Compound 21, (Z)-6-(5-Chloro-2-methoxyphenyl)-6-(2,3-dihydro-2,7-dimethyl-3-oxo-benzo[d]isoxazol-5-yl)-hex-5-enoic Acid Methyl Ester] |  | 8.2 | 0.48 ± 0.06 |  |  | > 100 | 13 |  |  |
| COC(=O)CCC/C=C(\c1cc(F)cc(C(F)(F)F)c1)c1cc(C)c2on(C)c(=O)c2c1 [Compound 22, (Z)-6-(2,3-Dihydro-2,7-dimethyl-3-oxo-benzo[d]isoxazol-5-yl)-6-(3-fluoro-5-trifluoromethylphenyl)-hex-5-enoic Acid Methyl Ester] | 39.8 | > 100 |  | > 43.2 | > 35.7 | > 100 | 16.8 |  |  |
| COC(=O)CCC/C=C(/c1cc(C)c2onc(OC)c2c1)c1cc(C)c2oc(=O)n(C)c2c1 [Compound 67, (Z)-6-(3,7-Dimethyl-2-oxo-2,3-dihydro-benzoxazol-5-yl)-6-(3-methoxy-7-methyl-benzo[d]isoxazol-5-yl)-hex-5-enoic Acid Methyl Ester] |  | 0.25 |  |  |  |  |  |  |  |
| COc1noc2c(C)cc(/C(=C\CCN3CCOC3=O)c3cc(C)c4oc(=O)n(C)c4c3)cc12 [Compound 68, (E)-5-[1-(3-Methoxy-7-methylbenzo[d]isoxazol-5-yl)-4-(2-oxoxazolidin-3-yl)-but-1-enyl]-3,7-dimethyl-3H-benzoxazol-2-one] |  | 3.6 |  |  |  |  |  |  | had not been hydrolyzed |
